Data: PubChem BioAssay AID248 (DTP/NCI, 2004)
Values joined by “and” are separate entries in the source; they are usually repeats but may differ in a detail not shown here. Equal values may be shown once. Inconclusive results and toxic doses are left out. Rule as the data show it: active = T/C of 150% or more; inactive = T/C below 125%.

Tested on: L1210 leukemia ip in BDF1 mice, survival T/C
Test: NCI In Vivo Anticancer Drug Screen. Data for tumor model L1210 Leukemia (intraperitoneal) in B6D2F1 (BDF1) mice
Settings: endpoint: mean survival time, higher = longer survival
Summary of the method: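 Transplanted-tumor mice were given test agent; controls received vehicle only. Survival readings from the two groups were divided (treated over control).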

[1] = dose: 50.0 mg/kg/injection, schedule: Q01DX009 (ip), vehicle: Klucel (hydroxypropylcellulose) (HPC)

Measured: T/C

CCCCCCCCCCCCCCCCCCNC(=O)Nc1ccc(SC)cc1
inactive: dose: 100.0 mg/kg/injection, schedule: Q04DX002 (ip), vehicle: Klucel (hydroxypropylcellulose) (HPC) 101 % of control | dose: 200.0 mg/kg/injection, schedule: Q04DX002 (ip), vehicle: Klucel (hydroxypropylcellulose) (HPC) 96 % of control | dose: 400.0 mg/kg/injection, schedule: Q04DX002 (ip), vehicle: Klucel (hydroxypropylcellulose) (HPC) 101 % of control

CNCC(O)c1ccc(O)cc1 (stereo not drawn)
inactive: dose: 25.0 mg/kg/injection, schedule: Q01DX009 (ip), vehicle: saline 96 % of control | dose: 25.0 mg/kg/injection, schedule: Q04DX003 (ip), vehicle: saline 111 % of control | dose: 50.0 mg/kg/injection, schedule: Q01DX009 (ip), vehicle: saline 105 % of control | dose: 50.0 mg/kg/injection, schedule: Q04DX003 (ip), vehicle: saline 101 % of control | dose: 100.0 mg/kg/injection, schedule: Q01DX009 (ip), vehicle: saline 98 % of control | dose: 100.0 mg/kg/injection, schedule: Q04DX003 (ip), vehicle: saline 90 % of control and 101 % of control | dose: 200.0 mg/kg/injection, schedule: Q01DX009 (ip), vehicle: saline 98 % of control | dose: 200.0 mg/kg/injection, schedule: Q04DX003 (ip), vehicle: saline 88 % of control and 104 % of control | dose: 400.0 mg/kg/injection, schedule: Q01DX009 (ip), vehicle: saline 100 % of control | dose: 400.0 mg/kg/injection, schedule: Q04DX003 (ip), vehicle: saline 98 % of control and 120 % of control

c1cc[c]([Pb]([c]2ccccc2)([c]2ccccc2)[n]2ccnc2)cc1
inactive: dose: 5.0 mg/kg/injection, schedule: Q01DX001 (ip), vehicle: other 106 % of control | dose: 10.0 mg/kg/injection, schedule: Q01DX001 (ip), vehicle: other 98 % of control

O=Nc1ccc(O)c2ccccc12
inactive: [1] 100 % of control | dose: 100.0 mg/kg/injection, schedule: Q01DX009 (ip), vehicle: Klucel (hydroxypropylcellulose) (HPC) 100 % of control | dose: 200.0 mg/kg/injection, schedule: Q01DX009 (ip), vehicle: Klucel (hydroxypropylcellulose) (HPC) 95 % of control

[O-]c1on[n+](C2CCCCC2)c1-c1ccccc1
inactive: dose: 100.0 mg/kg/injection, schedule: Q04DX003 (ip), vehicle: saline with Tween-80 95 % of control | dose: 200.0 mg/kg/injection, schedule: Q04DX003 (ip), vehicle: saline with Tween-80 91 % of control | dose: 400.0 mg/kg/injection, schedule: Q04DX003 (ip), vehicle: saline with Tween-80 101 % of control

CN1CCC(=C2c3ccccc3C(O)c3ccccc32)CC1 (stereo not drawn)
inactive: dose: 3.12 mg/kg/injection, schedule: Q01DX009 (ip), vehicle: Klucel (hydroxypropylcellulose) (HPC) 98 % of control | dose: 6.25 mg/kg/injection, schedule: Q01DX009 (ip), vehicle: Klucel (hydroxypropylcellulose) (HPC) 96 % of control | dose: 12.5 mg/kg/injection, schedule: Q01DX009 (ip), vehicle: Klucel (hydroxypropylcellulose) (HPC) 93 % of control | dose: 25.0 mg/kg/injection, schedule: Q04DX003 (ip), vehicle: Klucel (hydroxypropylcellulose) (HPC) 98 % of control | [1] 93 % of control | dose: 50.0 mg/kg/injection, schedule: Q04DX003 (ip), vehicle: Klucel (hydroxypropylcellulose) (HPC) 98 % of control

O=C(O)CCCN1CCCCC1
inactive: dose: 100.0 mg/kg/injection, schedule: Q04DX002 (ip), vehicle: saline 103 % of control | dose: 200.0 mg/kg/injection, schedule: Q04DX002 (ip), vehicle: saline 100 % of control | dose: 400.0 mg/kg/injection, schedule: Q04DX002 (ip), vehicle: saline 100 % of control

CCCCCOC(=O)C(C(=O)OCCCCC)(C(=O)OCCCCC)C(=O)OCCCCC
inactive: dose: 100.0 mg/kg/injection, schedule: Q01DX001 (ip), vehicle: saline 100 % of control | dose: 200.0 mg/kg/injection, schedule: Q01DX001 (ip), vehicle: saline 104 % of control | dose: 400.0 mg/kg/injection, schedule: Q01DX001 (ip), vehicle: saline 95 % of control
